{
  "source": "patent US8367605B2",
  "about": "“Copolymer-1 improvements in compositions of copolymers” (Yeda Research and Development Co. Ltd., priority 1994, dated 2013)",
  "origin": "cited, not measured here",
  "key": {"[1]": {"system": "patients with the exacerbating-remitting form of multiple sclerosis", "details": "daily injections; N. Engl. J. Med. [1987]317:408"}, "[2]": {"system": "experimental autoimmune encephalomyelitis (EAE)", "details": "Eur. J. Immunol. [1971]1:242; U.S. Pat. No. 3,849,550"}},
  "data": [
    {"substance": "copolymer-1", "values": [
      {"measurement": "disability status versus control patients", "setting": "[1]", "result": "smaller increases in their disability status"},
      {"measurement": "exacerbations versus control patients", "setting": "[1]", "result": "fewer exacerbations"},
      {"measurement": "effect on EAE", "setting": "[2]", "result": "suppress EAE"}
    ]}
  ]
}
